Measured values: ChEMBL document CHEMBL3988442, “University of Dundee, Small-Polar-MMV Screening Library” (2021)
Where “and” joins values, the source holds several entries; their conditions need not be identical. Equal values may be shown once.

Assays:
Lysine--tRNA ligase = Lysine--tRNA ligase (Plasmodium falciparum (isolate 3D7), UniProt Q8IDJ8); experiment: Pf-KRS-1 (Lysyl-RNA Synthetase-1, KRS-1, cytosolic KRS) from Plasmodium falciparum. Inhibitor assay, 384 well plate, luminescence read.; format: functional
Histidine--tRNA ligase = biological target: T1, Histidine--tRNA ligase (Leishmania infantum, UniProt A4I591); experiment: Leishmania infantum Histidine tRNA synthetase (LdHisRS); format: functional
T1 sequence (A4I591 whole entry): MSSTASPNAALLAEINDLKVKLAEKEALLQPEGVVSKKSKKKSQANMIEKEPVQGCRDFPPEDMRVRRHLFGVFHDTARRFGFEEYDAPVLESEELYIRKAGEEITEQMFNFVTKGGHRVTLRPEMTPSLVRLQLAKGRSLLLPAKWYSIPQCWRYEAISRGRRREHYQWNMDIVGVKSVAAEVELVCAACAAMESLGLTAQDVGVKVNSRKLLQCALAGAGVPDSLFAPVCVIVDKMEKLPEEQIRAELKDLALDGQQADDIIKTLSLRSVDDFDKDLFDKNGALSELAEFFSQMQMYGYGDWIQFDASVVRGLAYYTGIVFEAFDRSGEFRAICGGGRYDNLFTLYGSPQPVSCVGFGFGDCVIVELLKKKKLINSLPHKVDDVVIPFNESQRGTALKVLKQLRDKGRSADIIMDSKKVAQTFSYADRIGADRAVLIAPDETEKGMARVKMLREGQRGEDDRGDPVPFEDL

[1] = microbe, parasite or virus in culture; conditions: Mycobacterium tuberculosis, 96 h, read-out: pIC50 (converted)
[2] = microbe, parasite or virus in culture; conditions: Mycobacterium tuberculosis, 72 h, read-out: pIC50 (converted)
Schistosoma mansoni = experiment: High throughput screening of compounds against Schistosoma mansoni motility; format: functional; design: dose or concentration left out as unconfirmed
[3] = In vitro enzyme assay to detect hydrolysis of chlorophenol red-beta-D-[…] directly proportional to the number of Toxoplasma stably expressing beta-galactosidase; format: functional, organism-based, Toxoplasma gondii
Plasmodium falciparum = experiment: Calibr Malaria Delayed Death Assay SOP; format: functional, organism-based

Sequence of Lysine--tRNA ligase (Q8IDJ8 whole entry): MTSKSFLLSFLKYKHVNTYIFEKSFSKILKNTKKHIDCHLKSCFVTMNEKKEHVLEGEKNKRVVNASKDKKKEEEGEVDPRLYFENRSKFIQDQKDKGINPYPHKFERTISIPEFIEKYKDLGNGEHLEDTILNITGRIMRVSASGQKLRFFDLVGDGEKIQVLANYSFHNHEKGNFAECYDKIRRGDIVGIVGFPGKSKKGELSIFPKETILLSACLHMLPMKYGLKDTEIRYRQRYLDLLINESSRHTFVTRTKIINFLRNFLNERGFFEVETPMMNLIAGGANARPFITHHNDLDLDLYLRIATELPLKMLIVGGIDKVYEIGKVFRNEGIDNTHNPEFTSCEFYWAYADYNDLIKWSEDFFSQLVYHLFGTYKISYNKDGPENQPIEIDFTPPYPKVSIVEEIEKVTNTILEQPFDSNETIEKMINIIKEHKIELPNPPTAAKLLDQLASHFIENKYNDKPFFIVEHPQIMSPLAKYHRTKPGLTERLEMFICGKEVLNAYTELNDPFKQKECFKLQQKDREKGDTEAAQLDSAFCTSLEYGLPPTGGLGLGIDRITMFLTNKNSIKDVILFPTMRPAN

Compound	IC50 (Lysine--tRNA ligase) [µM]	IC50 (Histidine--tRNA ligase)	further results
CCn1cc(CNc2ccc3nccnc3c2)cn1	> 50.1	9.36 µM and 8.25 µM	–
Cn1nc2c(cc1=O)CN(CC1CCCCO1)CC2 (stereo not drawn)	> 50.1	23.7 µM and 25 µM	–
CC(C)CN1C[C@H]2CCN(C(=O)C3CCCO3)CC[C@H]2S1(=O)=O (stereo partly drawn)	> 50.1	–	IC50 [1]: > 50.1 µM; IC50 [2]: > 50.1 µM
COCCN(Cc1ccc(F)cc1Cl)C(=O)c1ccc(=O)[nH]n1	> 50.1	–	Percent Effect (Schistosoma mansoni): -14.07%
CCCOCC1CCN(C(=O)Cn2cccc(OC)c2=O)C1 (stereo not drawn)	> 50.1	2.01 µM and 1.03 µM and 2.08 µM and 1.01 µM	–
CC(NC(=O)C1=NN(C)C(=O)CC1)c1ccc(Cl)cc1Cl (stereo not drawn)	> 50.1	–	Percent Effect (Schistosoma mansoni): -38.06%
Cc1cccc(-c2noc(CN3CCc4nn(C)c(=O)cc4C3)n2)c1	> 50.1	9.38 µM and 11.6 µM	–
CCc1ccc(-c2cc(C(F)(F)F)nc(N3CCC(N)CC3)n2)cc1	> 50.1	26.9 µM and 24.6 µM	pIC50 [3]: 5.409; IC50 ([3]; Toxoplasma gondii): 2.22 µM; pIC50 (Plasmodium falciparum): 5.997; IC50 (Plasmodium falciparum; Plasmodium falciparum): 1.03 µM; IC50 [1]: 15.3 µM; IC50 [2]: 13 µM
Cc1nnc(NCC(c2ccco2)N2CCCC2)c(C#N)c1C (stereo not drawn)	> 50.1	27.1 µM and 17.8 µM	–
O=C(COCc1ccccc1Cl)N1CCN(c2cnccn2)CC1	> 50.1	–	–
Cc1nnc(N2CCC(CCN(C)C)CC2)c(C#N)c1C	> 50.1	–	–
COc1ccccc1N1CCC(N2CCOCC(CO)C2)CC1 (stereo not drawn)	> 50.1	–	–
O=C(C(O)c1ccccc1Cl)N1CCCN(Cc2cccnc2)CC1 (stereo not drawn)	> 50.1	–	–
O=c1ccc2c(n1Cc1cccnc1)CCC(NCc1cccnc1)C2 (stereo not drawn)	> 50.1	–	–
CSCCCN1CCCC(Cn2ccnc2)C1 (stereo not drawn)	> 50.1	–	–
Cc1noc(C(C)Nc2ccc3oc(C)nc3c2)n1 (stereo not drawn)	> 50.1	23.9 µM and 20.4 µM	–
O=C(c1cnc(-c2cccs2)s1)N1CCCC(n2cccn2)C1 (stereo not drawn)	> 50.1	–	–

Compound	IC50 (Lysine--tRNA ligase) [µM]	IC50 (Histidine--tRNA ligase)	further results
FC(F)(F)COCCN1CCc2cncnc2C1	> 50.1	–	–
CN(Cc1ccco1)C(=O)Nc1ccc(=O)n(C)c1	> 50.1	11.6 µM and 9.89 µM	–
CC1(C)CCN1C(=O)c1cc(F)cc2[nH]cnc12	> 50.1	–	–
O=C(C[S+]([O-])Cc1c(Cl)cccc1Cl)N1CCc2sccc2C1 (stereo not drawn)	> 50.1	–	–
CCC1CCC(CNC(=O)c2c[nH]c(=O)c(Cl)c2)CC1 (stereo not drawn)	> 50.1	–	–
CCCC(=O)N1CCCCC1C(=O)Nc1ccc(-c2nnc[nH]2)cc1 (stereo not drawn)	> 50.1	–	–
O=C(c1ccc2c(c1)CCCC2)N1CCCC(n2cncn2)C1 (stereo not drawn)	> 50.1	–	–
Cc1nc(NC(C)C)nc2c1CN(Cc1nccn1C)CC2	> 50.1	–	–
c1cnnc(N2CCCC(NCc3ccncc3)C2)c1 (stereo not drawn)	> 50.1	–	–
Cc1nnc(NCCC(=O)NCc2ccccc2)c(C#N)c1C	> 50.1	–	–
Oc1ccc(N(CCc2ccccc2)CCn2cncn2)cc1	> 50.1	39.6 µM and 56.7 µM	–
CCN(Cc1cccc(F)c1)c1ccc2nnnn2n1	> 50.1	–	–
CN(C)C(=O)N1C[C@@H]2CC[C@H](C1)N(C/C=C/c1ccc(F)cc1)C2	> 50.1	–	–
COCCc1ncc(-c2c(C#N)c(N)nc3c2CCc2[nH]ccc2-3)cn1	> 50.1	6.54 µM and 5.62 µM	–
CCc1n[nH]c(C2CN(Cc3nc(C4CC4)no3)CCO2)n1 (stereo not drawn)	> 50.1	–	–
Cc1nnc(NC(=O)CN2CCOC(Cn3cccn3)C2)s1 (stereo not drawn)	> 50.1	–	–
